Test results published in PubChem BioAssay AID1745844 (Carcinogenic Potency Database (CPDB), 2022).
Where “and” joins values, the source holds several entries; their conditions need not be identical. Equal entries are not always repeated. Calls of active or inactive are those of the source. No rule for the calls is given here.

Test system: rodent lifetime carcinogenesis bioassay, tumor incidence TD50
Experiment: carcinogenic potency in animals, long-term in vivo studies, CPDB compilation (AID 1745844)

## CC#N
mouse, strain B6C3F1, females, inhaled, site: any site (literature study), lesion: several types, types named in the paper, dosed 103 weeks, study length 105 weeks
  carcinogen call: negative (inactive)
mouse, strain B6C3F1, males, inhaled, site: any site (literature study), lesion: several types, types named in the paper, dosed 103 weeks, study length 104 weeks
  carcinogen call: negative (inactive)
mouse, strain B6C3F1, males, inhaled, site: liver, lesion: hepatocellular adenoma + hepatoblastoma + hepatocellular carcinoma, dosed 103 weeks, study length 104 weeks
  TD50: 90.4 mg/kg/day
mouse, strain B6C3F1, males, inhaled, site: lung, lesion: alveolar/bronchiolar adenoma + alveolar/bronchiolar carcinoma, dosed 103 weeks, study length 104 weeks
  TD50: 318 mg/kg/day
rat, strain Fischer 344, females, inhaled, site: mammary gland, lesion: carcinoma + fibroadenoma, dosed 103 weeks, study length 104 weeks
  TD50: 11.5 mg/kg/day (inactive)
rat, strain Fischer 344, males, inhaled, site: adrenal medulla, lesion: pheochromocytoma benign, bilateral + pheochromocytoma, benign, dosed 103 weeks, study length 104 weeks
  TD50: 16.9 mg/kg/day
rat, strain Fischer 344, males, inhaled, site: adrenal medulla, lesion: pheochromocytoma benign, bilateral + pheochromocytoma, malignant + pheochromocytoma, benign, dosed 103 weeks, study length 104 weeks
  TD50: 14.8 mg/kg/day
rat, strain Fischer 344, males, inhaled, site: liver, lesion: hepatocellular adenoma + hepatoblastoma + hepatocellular carcinoma, dosed 103 weeks, study length 104 weeks
  TD50: 168 mg/kg/day
rat, strain Fischer 344, males, inhaled, site: liver, lesion: hepatocellular adenoma + hepatocellular carcinoma, dosed 103 weeks, study length 104 weeks
  TD50: 168 mg/kg/day
rat, strain Fischer 344, males, inhaled, site: liver, lesion: hepatocellular adenoma, dosed 103 weeks, study length 104 weeks
  TD50: 156 mg/kg/day
rat, strain Fischer 344, males, inhaled, site: liver, lesion: hepatocellular carcinoma, dosed 103 weeks, study length 104 weeks
  TD50: 398 mg/kg/day
rat, strain Fischer 344, males, inhaled, site: skin, lesion: basal-cell adenoma + keratoacanthoma + trichoepithelioma, dosed 103 weeks, study length 104 weeks
  TD50: 81.6 mg/kg/day
rat, strain Fischer 344, males, inhaled, site: skin, lesion: keratoacanthoma, dosed 103 weeks, study length 104 weeks
  TD50: 127 mg/kg/day

## COc1cccc(O)c1O
rat, strain F344/DuCrj, males, in feed, site: forestomach, lesion: squamous-cell papilloma, dosed 51 weeks, study length 51 weeks
  TD50: 425 mg/kg/day
rat, strain F344/DuCrj, males, in feed, site: stomach, glandular, lesion: adenoma, dosed 51 weeks, study length 51 weeks
  TD50: 48.7 mg/kg/day

## O=P(OCCCl)(OCCCl)OCCCl
mouse, strain B6C3F1, females, by gavage, site: Harderian gland, lesion: adenoma + carcinoma, dosed 104 weeks, study length 104 weeks
  TD50: 1390 mg/kg/day
mouse, strain B6C3F1, females, by gavage, site: any site (literature study), lesion: several types, types named in the paper, dosed 104 weeks, study length 104 weeks
  TD50: 610 mg/kg/day
mouse, strain B6C3F1, females, by gavage, site: liver, lesion: hepatocellular adenoma + hepatocellular carcinoma + neoplastic nodule, dosed 104 weeks, study length 104 weeks
  TD50: 2870 mg/kg/day
mouse, strain B6C3F1, females, by gavage, site: lung, lesion: alveolar/bronchiolar adenoma + alveolar/bronchiolar carcinoma, dosed 104 weeks, study length 104 weeks
  TD50: 4380 mg/kg/day
mouse, strain B6C3F1, females, by gavage, site: mammary gland, lesion: adenocarcinoma, dosed 104 weeks, study length 104 weeks
  TD50: 3050 mg/kg/day
mouse, strain B6C3F1, females, by gavage, site: uterus, lesion: endometrial stromal polyp, dosed 104 weeks, study length 104 weeks
  TD50: 2420 mg/kg/day
mouse, strain B6C3F1, males, by gavage, site: any site (literature study), lesion: several types, types named in the paper, dosed 104 weeks, study length 104 weeks
  TD50: 807 mg/kg/day
mouse, strain B6C3F1, males, by gavage, site: kidney, lesion: tubule adenoma + tubule carcinoma, dosed 104 weeks, study length 104 weeks
  TD50: 3510 mg/kg/day and 6810 mg/kg/day
mouse, strain B6C3F1, males, by gavage, site: kidney, lesion: tubule carcinoma, dosed 104 weeks, study length 104 weeks
  TD50: 8450 mg/kg/day
mouse, strain B6C3F1, males, by gavage, site: liver, lesion: hepatocellular adenoma + hepatocellular carcinoma + neoplastic nodule, dosed 104 weeks, study length 104 weeks
  TD50: 569 mg/kg/day
mouse, strain B6C3F1, males, by gavage, site: lung, lesion: alveolar/bronchiolar adenoma + alveolar/bronchiolar carcinoma, dosed 104 weeks, study length 104 weeks
  TD50: 61700 mg/kg/day
mouse, strain Slc:ddY, females, in feed, site: all sites, lesion: leukemia, dosed 78 weeks, study length 78 weeks
  TD50: 4790 mg/kg/day
mouse, strain Slc:ddY, females, in feed, site: any site (literature study), lesion: several types, types named in the paper, dosed 78 weeks, study length 78 weeks
  TD50: 880 mg/kg/day
mouse, strain Slc:ddY, females, in feed, site: forestomach, lesion: several types, types named in the paper, dosed 78 weeks, study length 78 weeks
  TD50: 5500 mg/kg/day
mouse, strain Slc:ddY, females, in feed, site: forestomach, lesion: squamous-cell carcinoma, dosed 78 weeks, study length 78 weeks
  TD50: 8970 mg/kg/day
mouse, strain Slc:ddY, females, in feed, site: liver, lesion: hepatocellular adenoma, dosed 78 weeks, study length 78 weeks
  TD50: 23000 mg/kg/day
mouse, strain Slc:ddY, males, in feed, site: any site (literature study), lesion: several types, types named in the paper, dosed 78 weeks, study length 78 weeks
  TD50: 185 mg/kg/day
mouse, strain Slc:ddY, males, in feed, site: kidney, lesion: renal-cell carcinoma, dosed 78 weeks, study length 78 weeks
  TD50: 844 mg/kg/day
mouse, strain Slc:ddY, males, in feed, site: kidney, lesion: several types, types named in the paper, dosed 78 weeks, study length 78 weeks
  TD50: 539 mg/kg/day
mouse, strain Slc:ddY, males, in feed, site: liver, lesion: hepatocellular carcinoma, dosed 78 weeks, study length 78 weeks
  TD50: 28800 mg/kg/day
mouse, strain Slc:ddY, males, in feed, site: liver, lesion: several types, types named in the paper, dosed 78 weeks, study length 78 weeks
  TD50: 1690 mg/kg/day
rat, strain Fischer 344, females, by gavage, site: any site (literature study), lesion: several types, types named in the paper, dosed 104 weeks, study length 104 weeks
  TD50: 39.9 mg/kg/day
rat, strain Fischer 344, females, by gavage, site: kidney, lesion: tubule adenoma, dosed 104 weeks, study length 104 weeks
  TD50: 187 mg/kg/day
rat, strain Fischer 344, females, by gavage, site: multiple organs, lesion: mononuclear-cell leukemia, dosed 104 weeks, study length 104 weeks
  TD50: 90.2 mg/kg/day
rat, strain Fischer 344, females, by gavage, site: thyroid gland, lesion: follicular-cell adenoma + follicular-cell carcinoma, dosed 104 weeks, study length 104 weeks
  TD50: 203 mg/kg/day
rat, strain Fischer 344, females, by gavage, site: thyroid gland, lesion: follicular-cell carcinoma, dosed 104 weeks, study length 104 weeks
  TD50: 280 mg/kg/day
rat, strain Fischer 344, females, by gavage, site: uterus, lesion: endometrial stromal sarcoma, dosed 104 weeks, study length 104 weeks
  TD50: 589 mg/kg/day
rat, strain Fischer 344, males, by gavage, site: adrenal medulla, lesion: pheochromocytoma benign, bilateral + pheochromocytoma, benign, dosed 104 weeks, study length 104 weeks
  TD50: 49.5 mg/kg/day
rat, strain Fischer 344, males, by gavage, site: any site (literature study), lesion: several types, types named in the paper, dosed 104 weeks, study length 104 weeks
  TD50: 56.8 mg/kg/day
rat, strain Fischer 344, males, by gavage, site: brain + cerebellum, meninges, lesion: granular-cell tumor, benign, dosed 104 weeks, study length 104 weeks
  TD50: 705 mg/kg/day
rat, strain Fischer 344, males, by gavage, site: kidney, lesion: tubule adenoma + tubule carcinoma, dosed 104 weeks, study length 104 weeks
  TD50: 56.4 mg/kg/day
rat, strain Fischer 344, males, by gavage, site: kidney, lesion: tubule adenoma, dosed 104 weeks, study length 104 weeks
  TD50: 56.9 mg/kg/day
rat, strain Fischer 344, males, by gavage, site: kidney, lesion: tubule carcinoma, dosed 104 weeks, study length 104 weeks
  TD50: 8400 mg/kg/day
rat, strain Fischer 344, males, by gavage, site: liver, lesion: hepatocellular adenoma + hepatocellular carcinoma + neoplastic nodule, dosed 104 weeks, study length 104 weeks
  TD50: 633 mg/kg/day
rat, strain Fischer 344, males, by gavage, site: multiple organs, lesion: mononuclear-cell leukemia, dosed 104 weeks, study length 104 weeks
  TD50: 107 mg/kg/day
rat, strain Fischer 344, males, by gavage, site: subcutaneous tissue, lesion: fibroma, dosed 104 weeks, study length 104 weeks
  TD50: 246 mg/kg/day
rat, strain Fischer 344, males, by gavage, site: thyroid gland, lesion: follicular-cell adenoma + follicular-cell carcinoma, dosed 104 weeks, study length 104 weeks
  TD50: 338 mg/kg/day

## C=CCOC(=O)c1ccccc1C(=O)OCC=C
mouse, strain B6C3F1, females, by gavage, site: any site (literature study), lesion: several types, types named in the paper, dosed 103 weeks, study length 106 weeks
  TD50: 10100 mg/kg/day
mouse, strain B6C3F1, females, by gavage, site: forestomach, lesion: papilloma, NOS, dosed 103 weeks, study length 106 weeks
  TD50: 2730 mg/kg/day
mouse, strain B6C3F1, females, by gavage, site: liver, lesion: hepatocellular adenoma + hepatocellular carcinoma + neoplastic nodule, dosed 103 weeks, study length 106 weeks
  TD50: 2930 mg/kg/day
mouse, strain B6C3F1, females, by gavage, site: lung, lesion: alveolar/bronchiolar adenoma + alveolar/bronchiolar carcinoma, dosed 103 weeks, study length 106 weeks
  TD50: 4180 mg/kg/day
mouse, strain B6C3F1, males, by gavage, site: all sites, lesion: malignant lymphoma, NOS, dosed 103 weeks, study length 106 weeks
  TD50: 816 mg/kg/day
mouse, strain B6C3F1, males, by gavage, site: any site (literature study), lesion: several types, types named in the paper, dosed 103 weeks, study length 106 weeks
  TD50: 717 mg/kg/day
mouse, strain B6C3F1, males, by gavage, site: forestomach, lesion: papilloma, NOS, dosed 103 weeks, study length 106 weeks
  TD50: 2460 mg/kg/day
mouse, strain B6C3F1, males, by gavage, site: liver, lesion: hepatocellular adenoma + hepatocellular carcinoma + neoplastic nodule, dosed 103 weeks, study length 106 weeks
  TD50: 6680 mg/kg/day
mouse, strain B6C3F1, males, by gavage, site: liver, lesion: hepatocellular adenoma, dosed 103 weeks, study length 106 weeks
  TD50: 2450 mg/kg/day
mouse, strain B6C3F1, males, by gavage, site: lung, lesion: alveolar/bronchiolar adenoma + alveolar/bronchiolar carcinoma, dosed 103 weeks, study length 106 weeks
  TD50: 8520 mg/kg/day
rat, strain Fischer 344, females, by gavage, site: all sites, lesion: mononuclear-cell leukemia, dosed 103 weeks, study length 104 weeks
  TD50: 138 mg/kg/day
rat, strain Fischer 344, females, by gavage, site: any site (literature study), lesion: several types, types named in the paper, dosed 103 weeks, study length 104 weeks
  TD50: 163 mg/kg/day
rat, strain Fischer 344, males, by gavage, site: any site (literature study), lesion: several types, types named in the paper, dosed 103 weeks, study length 104 weeks
  TD50: 2990 mg/kg/day (inactive)

## O=C(O)c1cc(=O)[nH]c(=O)[nH]1
rat, strain Fischer 344, males, in feed, site: Zymbal's gland, lesion: one or several types, types not named, dosed 104 weeks, study length 104 weeks
  TD50: 2600 mg/kg/day
rat, strain Fischer 344, males, in feed, site: all sites, lesion: leukemia, dosed 104 weeks, study length 104 weeks
  TD50: 1690 mg/kg/day
rat, strain Fischer 344, males, in feed, site: liver, lesion: hepatocellular adenoma, dosed 52 weeks, study length 52 weeks
  TD50: 925 mg/kg/day
rat, strain Fischer 344, males, in feed, site: liver, lesion: hepatocellular adenoma, dosed 104 weeks, study length 104 weeks
  TD50: 395 mg/kg/day

## OCC(O)[C@@H](O)[C@H](O)[C@H](O)CO[C@H]1O[C@H](CO)[C@@H](O)[C@H](O)[C@H]1O (stereo partly drawn)
mouse, strain Cpb:Swiss random, females, in feed, site: any site (literature study), lesion: one or several types, types not named, dosed 104 weeks, study length 104 weeks
  TD50: 83400 mg/kg/day (inactive)
mouse, strain Cpb:Swiss random, females, in feed, site: liver, lesion: one or several types, types not named, dosed 104 weeks, study length 104 weeks
  carcinogen call: negative (inactive)
mouse, strain Cpb:Swiss random, females, in feed, site: lung, lesion: alveolar-cell tumor, dosed 104 weeks, study length 104 weeks
  TD50: 92600 mg/kg/day (inactive)
mouse, strain Cpb:Swiss random, males, in feed, site: any site (literature study), lesion: one or several types, types not named, dosed 94 weeks, study length 94 weeks
  carcinogen call: negative (inactive)
mouse, strain Cpb:Swiss random, males, in feed, site: liver, lesion: hepatocellular carcinoma, dosed 94 weeks, study length 94 weeks
  carcinogen call: negative (inactive)
mouse, strain Cpb:Swiss random, males, in feed, site: liver, lesion: neoplastic nodule, dosed 94 weeks, study length 94 weeks
  carcinogen call: negative (inactive)
mouse, strain Cpb:Swiss random, males, in feed, site: lung, lesion: alveolar-cell tumor, dosed 94 weeks, study length 94 weeks
  TD50: 26200 mg/kg/day (inactive)

## C#C[C@]1(C(C)=O)CC[C@H]2[C@@H]3CCC4=C[C@@H](C(C)=O)CC[C@@H]4[C@H]3CC[C@@]21C (tested in a mixture with another compound)
mouse, strain (C3H x RIII)F1 (MTV+), females, in feed, site: mammary tissue, wider than the gland, lesion: one or several types, types not named, dosed 104 weeks, study length 104 weeks
  TD50: 0.858 mg/kg/day
mouse, strain (C3H x RIII)F1 (MTV+), males, in feed, site: mammary tissue, wider than the gland, lesion: one or several types, types not named, dosed 104 weeks, study length 104 weeks
  TD50: 0.3 mg/kg/day
